Measurements reported in patent US7384934B2, “Piperazine substituted aryl benzodiazepines” (Eli Lilly and Company, priority 2002, dated 2008).
Where a name gives a salt, the structure may show the parent alone.

Tested on: not given
Assay: not given
Conditions: not given

With Cc1cc2c(s1)Nc1cc(F)ccc1N=C2N1CCN(C)[C@@H](CCO)C1.Cl.Cl as the compound, how does the melting point read?
The melting point was 230 °C.

For CCOCC[C@H]1CN(C2=Nc3ccc(F)cc3Nc3sc(C)cc32)CCN1C.Cl, which melting point is on record?
The melting point was 180 to 182 °C.

With COCC[C@H]1CN(C2=Nc3cc(F)ccc3Nc3sc(C)cc32)CCN1C.Cl as the compound, how does the melting point read?
The melting point was 192 to 194 °C.

With CCOCC[C@H]1CN(C2=Nc3cc(F)ccc3Nc3sc(C)cc32)CCN1C.Cl.Cl as the compound, how does the melting point read?
Its melting point is 193 to 195 °C.

For CSCC[C@H]1CN(C2=Nc3ccc(F)cc3Nc3sc(C)cc32)CCN1C.Cl.Cl, which melting point is on record?
The melting point was 194 °C.

With COCC[C@H]1CN(C2=Nc3ccccc3Nc3ccc(C(C)C)cc32)CCN1C (as salt: hydrochloride) as the compound, how does the melting point read?
The melting point was 210 °C.

For COCC[C@H]1CN(C2=Nc3ccccc3Nc3ccc(Cl)cc32)CCN1C (as salt: hydrochloride), which melting point is on record?
The melting point was 205 °C.

For COCC[C@H]1CN(C2=Nc3ccc(F)cc3Nc3sc(C)cc32)CCN1 (as salt: hydrochloride) [Example 248b, (S)-6-Fluoro-10-[3-(2-methoxy-ethyl)-piperazin-1-yl]-2-methyl-4H-3-thia-4,9-diaza-benzo[f]azulene dihydrochloride], which melting point is on record?
Its melting point is 90 °C.

Which melting point does the source give for COCC[C@H]1CN(C2=Nc3ccc(F)cc3Nc3sc(C)cc32)CCN1C (as salt: hydrochloride) [Example 279a, (S)-6-Fluoro 10-[3-(2-methoxy-ethyl)-4-methyl-piperazin-1-yl]-2-methyl-4H-3-thia-4,9-diaza-benzo[f]azulene dihydrochloride] here?
The melting point was 190 to 192 °C.

With CCc1cc2c(s1)Nc1cc(F)ccc1N=C2N1CCN(C)[C@@H](CCOC)C1 (as salt: hydrochloride) [Example 280, (S)-6-Fluoro-10-[3-(2-methoxy-ethyl)-4-methyl-piperazin-1-yl]-2-ethyl-4H-3-thia-4,9-diaza-benzo[f]azulene dihydrochloride] as the compound, how does the melting point read?
The melting point was 186 to 188 °C.

Which melting point does the source give for COCC[C@H]1CN(C2=Nc3ccc(Cl)cc3Nc3sc(C)cc32)CCN1C (as salt: hydrochloride) [Example 291, (S)-6-Chloro-10-[3-(2-methoxy-ethyl)-4-methyl-piperazin-1-yl]-2-methyl-4H-3-thia-4,9-diaza-benzo[f]azulene dihydrochloride] here?
Its melting point is 174 to 176 °C.

For COCC[C@H]1CN(C2=Nc3cc(Cl)ccc3Nc3sc(C)cc32)CCN1C (as salt: hydrochloride) [Example 292, (S)-7-Chloro-10-[3-(2-methoxy-ethyl)-4-methyl-piperazin-1-yl]-2-methyl-4H-3-thia-4,9-diaza-benzo[f]azulene dihydrochloride], which melting point is on record?
Its melting point is 200 to 202 °C.

Molecular target: T1, Dopamine D2 receptor (Homo sapiens, UniProt P14416)
T1 construct: purchased Receptor Biology (now owned by NEN) RBHD2CM
Assay: Dopamine D2 receptor binding assay ([125I]iodospiperone)
Conditions: relative Ki scale of Table 5; read-out: Relative D2 Receptor Binding Affinity Ki
Method: The assay buffers used are 50 mM Tris-HCl pH 7.4, 120 mM NaCl, 5 mM KCl, 5 mM MgCl2, 1 mM EDTA for the Dopamine D2s receptor binding assay. […] The membranes used are from Receptor Biology (now owned by NEN), Cat # RBHD2CM for the D2 receptor.
Compounds are obtained as 10 mM stocks in 100% DMSO. They are diluted to 1 mM in 100% DMSO by adding 180 μL DMSO to 20 μL of stock in 96 well plates using a multidrop. […] This is done using a TECAN robot.
The radioligand is diluted in assay buffer to provide 0.1 nM for the D2 assay. Each vial of membranes is diluted up to 92 mL in assay buffer. The final assay volume is 250 μL consisting of 210 μl of diluted membranes, 20 μL of compound or 10% DMSO for total binding, and 20 μL of diluted radioligand. The compounds are transferred from drug dilution plates into coming 96 well assay plates using a 96 well Multimek pipettor. Radioligand and membranes are added to assay plates using multidrop pipettors. Non-specific binding is determined in wells containing a final concentration of 5 μM haloperidol. The final drug concentration range in half logs is from 10 μM down to 0.1 nM.
After addition of drug, membrane, and ligand, the plates are incubated for 2 hours at room temperature. During this time 96 well Millipore filter plates (MAFBNOB50) are soaked for a least 30 minutes with 200 μL per well of 0.5% polyethyleneimine.
The 0.5% PEI is removed from filterplate wells using a TiterTek MAP aspirator and 200 μL of the incubation mixture is transferred from the incubation plate to the filterplate after mixing. This transfer is done using the 96 tip Mutimek pipettor. After transfer to the filterplate filterplates are extracted and ished twice with 220 μL per well of cold buffer on the MAP aspirator. The peel away bottoms are removed from the filterplates and 60 μL per well of microscint 20 scintillation fluid is added per well using a multidrop. […]

T1 sequence (P14416 1-414 isoform P14416-2): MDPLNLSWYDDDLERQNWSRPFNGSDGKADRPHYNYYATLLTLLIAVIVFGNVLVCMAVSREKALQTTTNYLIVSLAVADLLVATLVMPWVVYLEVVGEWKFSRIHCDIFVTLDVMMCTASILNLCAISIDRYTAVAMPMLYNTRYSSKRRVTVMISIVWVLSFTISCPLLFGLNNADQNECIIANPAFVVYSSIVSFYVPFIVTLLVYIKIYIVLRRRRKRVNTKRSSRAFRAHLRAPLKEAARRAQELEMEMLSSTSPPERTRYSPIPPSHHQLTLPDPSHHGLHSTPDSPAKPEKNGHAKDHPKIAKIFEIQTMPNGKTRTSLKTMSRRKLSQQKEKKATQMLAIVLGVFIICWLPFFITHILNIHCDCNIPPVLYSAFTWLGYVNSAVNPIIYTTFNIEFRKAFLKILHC

Which Ki does the source give for CCOCC[C@H]1CN(C2=Nc3ccccc3Nc3sc(C(C)C)nc32)CCN1C [Example 328, (S)-10-[3-(2-Ethoxyethyl)-4-methylpiperazin-1-yl]-2-isopropyl-4H-3-thia-1,4,9-triazabenzo[f]azulene dihydrochloride] here?
The Ki was 10 to 100 nM.

With COCC[C@H]1CN(C2=Nc3ccccc3Nc3sc(C4CCCC4)nc32)CCN1C [Example 331, (S)-10-[3-(2-Methoxyethyl)-4-methylpiperazin-1-yl]-2-cyclopentyl 4H-3-thia-1,4,9-triazabenzo[f]azulene dihydrochloride] as the compound, how does the Ki read?
The Ki was 10 to 100 nM.

With CCOC(=O)c1nc2c(s1)Nc1ccccc1N=C2N1CCN(C)[C@@H](CCOC)C1 [Example 333, (S)-10-[3-(2-Methoxy-ethyl)-4-methyl-piperazin-1-yl]-4H-3-thia-1,4,9-triaza-benzo[f]azulene-2-carboxylic acid ethyl ester dihydrochloride] as the compound, how does the Ki read?
Its Ki is 100 to 1000 nM.

With COCC[C@H]1CN(C2=Nc3ccccc3Nc3sc(C(F)(F)F)nc32)CCN1C [Example 334, (S)-10-[3-(2-Methoxy-ethyl)-4-methyl-piperazin-1-yl]-2-trifluoromethyl-4H-3-thia-1,4,9-triaza-benzo[f]azulene] as the compound, how does the Ki read?
Its Ki is less than 10 nM.

With COCC[C@H]1CN(C2=Nc3ccccc3Nc3sc(C(F)F)nc32)CCN1C [Example 336, (S)-10-[3-(2-Methoxy-ethyl)-4-methyl-piperazin-1-yl]-2-difluoromethyl 4H-3-thia-1,4,9-triaza-benzo[f]azulene] as the compound, how does the Ki read?
Its Ki is less than 10 nM.

With COCC[C@H]1CN(C2=Nc3ccccc3Nc3sc(CCC(F)(F)F)nc32)CCN1C [Example 338, (S)-10-[3-(2-Methoxy-ethyl)-4-methyl-piperazin-1-yl]-2-(3,3,3-trifluoro-propyl)-4H-3-thia-1,4,9-triaza-benzo[f]azulene dihydrochloride] as the compound, how does the Ki read?
Its Ki is 10 to 100 nM.

With COCC[C@H]1CN(C2=Nc3ccccc3Nc3sc(C(C)C)nc32)CCN1C1CC1 [Example 339, (S)-10-[4-Cyclopropyl-3-(2-methoxyethyl)piperazin-1-yl]-2-isopropyl-4H-3-thia-1,4,9-triazabenzo[f]azulene dihydrochloride] as the compound, how does the Ki read?
The Ki was 10 to 100 nM.

Which Ki does the source give for CCN1CCN(C2=Nc3ccccc3Nc3sc(C(C)C)nc32)C[C@@H]1CCOC [Example 340, (S)-10-[4-Ethyl-3-(2-methoxyethyl)piperazin-1-yl]-2-isopropyl-4H-3-thia-1,4,9-triazabenzo[f]azulene dihydrochloride] here?
The Ki was 10 to 100 nM.

With CCCN1CCN(C2=Nc3ccccc3Nc3sc(C(C)C)nc32)C[C@@H]1CCOC [Example 341, (S)-10-[3-(2-Methoxyethyl)-4-propylpiperazin-1-yl]-2-isopropyl-4H-3-thia-1,4,9-triazabenzo[f]azulene dihydrochloride] as the compound, how does the Ki read?
The Ki was 10 to 100 nM.

With COCC[C@H]1CN(C2=Nc3ccccc3Nc3sc(C(C)C)nc32)CCN1CCO [Example 342, (S)-2-[4-(2-Isopropyl-4H-3-thia-1,4,9-triazabenzo[f]azulene-10-yl)-2-(2-methoxyethyl)piperazin-1-yl]ethanol dihydrochloride] as the compound, how does the Ki read?
The Ki was 10 to 100 nM.

For COCC[C@H]1CN(C2=Nc3ccccc3Nc3sc(C(C)C)nc32)CCN1CCOC [Example 343, (S)-10-[3,4-Bis(2-methoxyethyl)piperazin-11-yl]-2-isopropyl-4H-3-thia-1,4,9-triazabenzo[f]azulene dihydrochloride], which Ki is on record?
Its Ki is 100 to 1000 nM.

For CCN1CCN(C2=Nc3ccccc3Nc3sc(C(F)(F)F)nc32)C[C@@H]1CCOC [Example 344, (S)-10-[4-Ethyl-3-(2-methoxy-ethyl)-piperazin-1-yl]-2-trifluoromethyl-4H-3-thia-1,4,9-triaza-benzo[f]azulene], which Ki is on record?
Its Ki is less than 10 nM.

With CCCN1CCN(C2=Nc3ccccc3Nc3sc(C(F)(F)F)nc32)C[C@@H]1CCOC [Example 346, (S)-10-[3-(2-Methoxy-ethyl)-4-propyl-piperazin-1-yl]-2-trifluoromethyl-4H-3-thia-1,4,9-triaza-benzo[f]azulene] as the compound, how does the Ki read?
Its Ki is less than 10 nM.

For COCC[C@H]1CN(C2=Nc3ccccc3Nc3sc(C(F)(F)F)nc32)CCN1CCCF [Example 351, (S)-10-[4-(3-Fluoro-propyl)-3-(2-methoxy-ethyl)-piperazin-1-yl]-2-trifluoromethyl-4H-3-thia-1,4,9-triaza-benzo[f]azulene], which Ki is on record?
The Ki was 10 to 100 nM.

Which Ki does the source give for COCC[C@H]1CN(C2=Nc3ccccc3Nc3sc(C(F)(F)F)nc32)CCN1CCO [Example 353] here?
The Ki was 10 to 100 nM.

Which Ki does the source give for COCC[C@H]1CN(C2=Nc3ccccc3Nc3sc(C(F)(F)F)nc32)CCN1CCCO [Example 355, (S)-3-[2-(2-Methoxy-ethyl)-4-(2-trifluoromethyl-4H-3-thia-1,4,9-triaza-benzo[f]azulene-10-yl)-piperazin-1-yl]-propan-1-ol] here?
The Ki was 10 to 100 nM.

With COCC[C@H]1CN(C2=Nc3ccccc3Nc3sc(C(F)(F)F)nc32)CCN1CCOCCO [Example 357] as the compound, how does the Ki read?
The Ki was 10 to 100 nM.

Which Ki does the source give for CC(C)c1nc2c(s1)Nc1ccccc1N=C2N1CCN[C@@H](CC(C)(C)O)C1 [Example 367, (S)-1-[4-(2-Isopropyl-4H-3-thia-1,4,9-triazabenzo[f]azulene-10-yl)-piperazin-2-yl]-2-methylpropan-2-ol dihydrochloride] here?
The Ki was less than 10 nM.

Which Ki does the source give for CC(C)c1nc2c(s1)Nc1ccccc1N=C2N1CCN(C)[C@@H](CC(C)(C)O)C1 [Example 368, (S)-1-[4-(2-Isopropyl-4H-3-thia-1,4,9-triazabenzo[f]azulene-10-yl)-1-methylpiperazin-2-yl]-2-methyl-propan-2-ol dihydrochloride] here?
The Ki was less than 10 nM.

Which Ki does the source give for Cc1cc2c(s1)Nc1ccccc1N=C2N1CCN[C@@H](CC(C)(C)O)C1 [Example 369, (S)-2-Methyl-1-[4-(2-methyl-4H-3-thia-4,9-diaza-benzo[f]azulen-10-yl)piperazin-2-yl]-propan-2-ol] here?
The Ki was 100 to 1000 nM.

With Cc1cc2c(s1)Nc1ccccc1N=C2N1CCN(C)[C@@H](CC(C)(C)O)C1 [Example 370, (S)-2-Methyl-1-[1-methyl-4-(2-methyl-4H-3-thia-4,9-diazabenzo[f]azulene-10-yl)-piperazin-2-yl]-propan-2-ol dihydrochloride] as the compound, how does the Ki read?
The Ki was 100 to 1000 nM.
